Read-outs that look alike come from different tables or passages of the source.
Biological target: T1, Dipeptidyl peptidase IV (Homo sapiens, UniProt P27487)
T1 construct: Dipeptidyl peptidase IV was purified from human placenta; from tissue; host or cells: human placenta
Assay: DPP IV inhibition assay (chromogenic substrate Ala-Pro-p-nitroanalide)
Type: biochemical
Details: Xaa-N(Methyl)-boroGly series; for IC50: 10 min incubation with enzyme, assay 25° C.; for Cyclization Index (CI): ratio of the IC50 at pH 8 and the IC50 at pH 2
Method: Dipeptidyl peptidase IV was purified from human placenta. Assays were performed at room temperature (25° C.) in 100 mM HEPES, pH 8.0, 0.14 M NaCl with the chromogenic substrate Ala-Pro-p-nitroanalide (Bachem) using a Molecular Devices SPECTRAmax 340PC^384 microtiter plate reader Inhibitor stocks (1 mg/mL) were prepared in 0.01 N HCl solution for pH 2.0 and in pH 8.0 HEPES buffer for pH 8.0. Both stocks were equilibrated at corresponding pH overnight at room temperature. The 1:10 dilution of inhibitor stocks was done with 0.01 N HCl for pH 2.0 and with pH 8.0 HEPES buffer for pH 8.0 immediately preceding the enzymatic reactions. Enzymatic reactions were carried out by incubating 250 μL of approximately 0.35 nM DPP IV with 30 μL of various inhibitor concentrations (ranging between 10^−3 and 10^−10 M) for 10 minutes before addition of 30 μL of 300 μM substrate. The absorbance at 410 nm was measured 30 minutes after addition of the substrate. Assays and their corresponding measurements were performed in triplicate. The negative control was prepared exactly the same as above, except that 30 μL of 0.01 N HCl was added instead of inhibitor solutions.
After a 10 minute incubation with the enzyme before addition of the substrate. The IC50 values were determined by fitting the data to a sigmoidal dose-response curve using non-linear regression in Prism 3.0 (Graph Pad).

[1] = inhibitor stock equilibrated overnight at pH 2.0 (0.01 N HCl), HEPES pH 8.0, read-out: IC50 (pH 2)
[2] = inhibitor stock equilibrated overnight at pH 8.0 (HEPES buffer), read-out: IC50 (pH 8)

T1 sequence (P27487 whole entry): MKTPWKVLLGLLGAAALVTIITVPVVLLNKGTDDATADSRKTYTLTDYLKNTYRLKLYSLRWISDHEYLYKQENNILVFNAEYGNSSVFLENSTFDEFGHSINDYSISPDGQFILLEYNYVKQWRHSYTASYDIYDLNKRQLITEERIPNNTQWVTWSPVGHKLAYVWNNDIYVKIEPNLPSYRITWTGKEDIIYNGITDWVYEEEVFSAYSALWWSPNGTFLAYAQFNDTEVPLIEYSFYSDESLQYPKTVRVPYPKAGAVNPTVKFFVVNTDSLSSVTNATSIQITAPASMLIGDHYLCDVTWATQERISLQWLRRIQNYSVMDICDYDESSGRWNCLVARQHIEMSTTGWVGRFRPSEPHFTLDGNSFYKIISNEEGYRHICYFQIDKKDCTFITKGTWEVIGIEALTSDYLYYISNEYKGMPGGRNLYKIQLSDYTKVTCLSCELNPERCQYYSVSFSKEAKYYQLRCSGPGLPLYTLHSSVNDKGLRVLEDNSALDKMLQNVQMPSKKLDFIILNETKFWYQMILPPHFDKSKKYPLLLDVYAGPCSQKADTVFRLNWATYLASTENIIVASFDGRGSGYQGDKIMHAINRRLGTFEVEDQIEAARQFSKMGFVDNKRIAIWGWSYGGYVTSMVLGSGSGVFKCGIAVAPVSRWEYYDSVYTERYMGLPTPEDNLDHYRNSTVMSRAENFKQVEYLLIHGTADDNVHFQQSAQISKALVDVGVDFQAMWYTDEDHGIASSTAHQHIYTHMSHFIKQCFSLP

Molecule	IC50 [1] [µM]	IC50 [2] [µM]	Cyclization Index (CI)
CN(CB(O)O)C(=O)CNC(C)(C)C [N-t-Butyl-Gly, H-N-(tBu)-Gly-boroSar]	< 0.15	< 0.15	<1
CSCC[C@H](N)C(=O)N(C)CB(O)O [Met, H-(S)-Met-boroSar]	< 0.4	< 25	<100
C[C@@H](O)[C@H](N)C(=O)N(C)CB(O)O [Thr, H-(S)-Thr-boroSar]	< 0.7	< 50	<100
CC(C)(C)C(N)C(=O)O (stereo not drawn) [t-Butyl-Gly]	< 0.15	< 0.15	<1
H-(S)-N-(Me)-Ala-boroSar [N-Methyl-Ala]	< 75	< 1000	<5
